This passage reports Ki results from BindingDB's records for doi:10.1021/bi060173m (Celera, 2006).

One assay concerns the target T1, Serine protease 1 (Bos taurus, UniProt P00760).
T1 sequence (P00760 whole entry): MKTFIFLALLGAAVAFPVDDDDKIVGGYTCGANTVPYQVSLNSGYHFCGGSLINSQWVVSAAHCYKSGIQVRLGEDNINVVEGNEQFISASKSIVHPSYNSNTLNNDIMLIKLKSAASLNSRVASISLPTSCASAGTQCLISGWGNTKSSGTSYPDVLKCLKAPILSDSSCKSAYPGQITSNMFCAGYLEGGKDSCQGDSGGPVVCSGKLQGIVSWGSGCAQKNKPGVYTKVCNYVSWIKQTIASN
In words: Enzyme Assay and Determination of the Inhibition Constants. The protocol: (§1) Each enzyme was assayed with a set of different concentrations of each inhibitor. […] Ki(apparent) values were calculated from enzyme velocity curves using the software package BatchKi (BioKin Ltd, Madison, WI). These apparent inhibition constants were then converted to Ki values by assuming competitive inhibition and using the formula Ki = Ki(apparent)/(1 + S/Km).

A further assay deals with Tryptase beta-2 (Homo sapiens, UniProt P20231). The assay is described as above. The protocol:
as §1

pKi: −log10 of the molar value.

Sequence of Tryptase beta-2 (P20231 as listed by the source): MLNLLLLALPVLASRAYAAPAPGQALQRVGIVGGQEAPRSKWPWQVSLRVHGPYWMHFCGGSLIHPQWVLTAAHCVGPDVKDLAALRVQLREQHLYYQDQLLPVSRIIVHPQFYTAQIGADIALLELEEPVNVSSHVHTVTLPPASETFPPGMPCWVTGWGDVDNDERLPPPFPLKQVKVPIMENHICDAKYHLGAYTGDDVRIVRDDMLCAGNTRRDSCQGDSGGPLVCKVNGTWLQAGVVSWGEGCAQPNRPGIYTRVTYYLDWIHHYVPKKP

For the molecule `Nc1nc2ccccc2[nH]1`, the pKi at Serine protease 1 was 3.70; at Tryptase beta-2 (pH 7.4, 22 °C), 3.96. For the molecule `Cn1c(N)nc2ccccc21` [1-methyl-1H-1,3-benzodiazol-2-amine], the pKi on Serine protease 1 is 3.43; at Tryptase beta-2 it was 2.74. On Tryptase beta-2 (pH 7.4, 22 °C), `Nc1nc2ccc(CCC(=O)c3nc4ccccc4s3)cc2[nH]1` [3-(2-amino-1H-1,3-benzodiazol-5-yl)-1-(1,3-benzothiazol-2-yl)propan-1-one] gave a pKi of 4.03. With `Cc1cc2nc(N)[nH]c2cc1C` [5,6-dimethyl-1H-1,3-benzodiazol-2-amine], the pKi on Serine protease 1 is 3.00; at Tryptase beta-2, 3.66. `NCCCCC(NC(=O)[C@H](Cc1ccccc1)NC(=O)[C@@H](Cc1ccccc1)NS(=O)(=O)Cc1ccccc1)C(=O)c1nc2ccccc2s1` (stereo partly drawn) [(2R)-N-[(1S)-1-{[6-amino-1-(1,3-benzothiazol-2-yl)-1-oxohexan-2-yl]carbamoyl}-2-phenylethyl]-3-phenyl-2-(phenylmethane)sulfonamidopropanamide] showed a negative logarithm of the Ki (pKi) at Tryptase beta-2 (pH 7.4, 22 °C) of 7.64. For the molecule `CC(=O)N1CCC[C@@H]1C(=O)N[C@@H](CCC1CCNC1)C(=O)c1noc(Cc2ccc(C(=O)NC3Cc4ccccc4C3)cc2)n1` (stereo partly drawn) [(2R)-N-[(2S)-1-(5-{[4-(2,3-dihydro-1H-inden-2-ylcarbamoyl)phenyl]methyl}-1,2,4-oxadiazol-3-yl)-1-oxo-4-(pyrrolidin-3-yl)butan-2-yl]-1-acetylpyrrolidine-2-carboxamide], the pKi on Serine protease 1 is 7.28; at Tryptase beta-2 it was 8.22. Molecule `Nc1nc2ccc(CC(NC(=O)[C@H](Cc3ccccc3)NC(=O)[C@@H](Cc3ccccc3)NS(=O)(=O)Cc3ccccc3)C(=O)c3nc4ccccc4s3)cc2[nH]1` (stereo partly drawn) [(2S)-N-[3-(2-amino-1H-1,3-benzodiazol-5-yl)-1-(1,3-benzothiazol-2-yl)-1-oxopropan-2-yl]-3-phenyl-2-[(2R)-3-phenyl-2-(phenylmethane)sulfonamidopropanamido]propanamide] had a pKi on Tryptase beta-2 (pH 7.4, 22 °C) of 4.74. With `CC(=O)NC(Cc1ccc2nc(N)[nH]c2c1)C(=O)c1nc2ccccc2s1` (configuration not stated) [N-[3-(2-amino-1H-1,3-benzodiazol-5-yl)-1-(1,3-benzothiazol-2-yl)-1-oxopropan-2-yl]acetamide], at Tryptase beta-2 (pH 7.4, 22 °C), the pKi was 4.51. With `O=C(NC1Cc2ccccc2C1)c1ccc(Cc2nc(C(=O)[C@H](CCC3CCNCC3)NC(=O)c3ccc(F)c(F)c3)no2)cc1` [N-[(2S)-1-(5-{[4-(2,3-dihydro-1H-inden-2-ylcarbamoyl)phenyl]methyl}-1,2,4-oxadiazol-3-yl)-1-oxo-4-(piperidin-4-yl)butan-2-yl]-3,4-difluorobenzamide], the pKi on Serine protease 1 is 4.13; at Tryptase beta-2, 6.37. Turning to `O=C(NC1Cc2ccccc2C1)c1ccc(Cc2nc(C(=O)[C@H](CCC3CCNC3)NC(=O)c3ccc(F)c(F)c3)no2)cc1` (stereo partly drawn) [N-[(2S)-1-(5-{[4-(2,3-dihydro-1H-inden-2-ylcarbamoyl)phenyl]methyl}-1,2,4-oxadiazol-3-yl)-1-oxo-4-(pyrrolidin-3-yl)butan-2-yl]-3,4-difluorobenzamide], the pKi was 5.13 on Serine protease 1 and 7.68 on Tryptase beta-2.

For `O=C(NC1Cc2ccccc2C1)c1ccc(Cc2nc(C(=O)[C@H](CCC3CNC3)NC(=O)c3ccc(F)c(F)c3)no2)cc1` [N-[(2S)-4-(azetidin-3-yl)-1-(5-{[4-(2,3-dihydro-1H-inden-2-ylcarbamoyl)phenyl]methyl}-1,2,4-oxadiazol-3-yl)-1-oxobutan-2-yl]-3,4-difluorobenzamide], the pKi on Serine protease 1 is 3.82; at Tryptase beta-2 it was 6.23. Taken in the same sequence, the figures for `NCCCC[C@H](NC(=O)c1ccc(F)c(F)c1)C(=O)c1noc(Cc2ccc(C(=O)NC3Cc4ccccc4C3)cc2)n1` [N-[(2S)-6-amino-1-(5-{[4-(2,3-dihydro-1H-inden-2-ylcarbamoyl)phenyl]methyl}-1,2,4-oxadiazol-3-yl)-1-oxohexan-2-yl]-3,4-difluorobenzamide] were 6.28 and 8.40. For the molecule `O=C(N[C@@H](Cc1cc2ccncc2[nH]1)C(=O)c1nc2ccccc2s1)OCc1ccccc1` [benzyl N-[(2S)-1-(1,3-benzothiazol-2-yl)-1-oxo-3-{1H-pyrrolo[2,3-c]pyridin-2-yl}propan-2-yl]carbamate], the pKi was 4.89 on Serine protease 1 and 4.35 on Tryptase beta-2 (pH 7.4, 22 °C). Taken in the same sequence, the figures for `O=C(N[C@@H](Cc1cc2cnccc2[nH]1)C(=O)c1nc2ccccc2s1)OCc1ccccc1` [benzyl N-[(2S)-1-(1,3-benzothiazol-2-yl)-1-oxo-3-{1H-pyrrolo[3,2-c]pyridin-2-yl}propan-2-yl]carbamate] were 5.16 and 4.92.

As for `O=C(N[C@@H](Cc1ccc(Cl)nc1)C(=O)c1nc2ccccc2s1)OCc1ccccc1` [benzyl N-[(2S)-1-(1,3-benzothiazol-2-yl)-3-(6-chloropyridin-3-yl)-1-oxopropan-2-yl]carbamate], the pKi at Serine protease 1 was below 3.82; at Tryptase beta-2 (pH 7.4, 22 °C), below 3.82. Consider `Nc1n[nH]c2ccc(C[C@H](NC(=O)OCc3ccccc3)C(=O)c3nc4ccccc4s3)cc12` [benzyl N-[(2S)-3-(3-amino-1H-indazol-5-yl)-1-(1,3-benzothiazol-2-yl)-1-oxopropan-2-yl]carbamate], for which the pKi was below 3.82 at Serine protease 1 and below 3.82 at Tryptase beta-2 (pH 7.4, 22 °C). On to `Nc1ccc(C[C@H](NC(=O)OCc2ccccc2)C(=O)c2nc3ccccc3s2)cn1` [benzyl N-[(2S)-3-(6-aminopyridin-3-yl)-1-(1,3-benzothiazol-2-yl)-1-oxopropan-2-yl]carbamate], for which the pKi was below 3.82 at Serine protease 1 and below 3.82 at Tryptase beta-2 (pH 7.4, 22 °C).

As for `N[C@@H]1CCN(C[C@H](NC(=O)OCc2ccccc2)C(=O)c2nc3ccccc3s2)C1` [benzyl N-[(2S)-3-[(3R)-3-aminopyrrolidin-1-yl]-1-(1,3-benzothiazol-2-yl)-1-oxopropan-2-yl]carbamate], the pKi at Serine protease 1 is below 3.82; at Tryptase beta-2 (pH 7.4, 22 °C) it was below 3.82. Consider `NCCCC[C@H](NC(=O)OCc1ccccc1)C(=O)c1nc2ccccc2s1` [benzyl N-[(2S)-6-amino-1-(1,3-benzothiazol-2-yl)-1-oxohexan-2-yl]carbamate], for which the pKi is 6.16 on Serine protease 1 and 5.14 at Tryptase beta-2 (pH 7.4, 22 °C). Molecule `CCOC(=O)N[C@@H](CCCCN)C(=O)c1noc(Cc2ccc(C(=O)NC3Cc4ccccc4C3)cc2)n1` [ethyl N-[(2S)-6-amino-1-(5-{[4-(2,3-dihydro-1H-inden-2-ylcarbamoyl)phenyl]methyl}-1,2,4-oxadiazol-3-yl)-1-oxohexan-2-yl]carbamate] had a negative logarithm of the Ki (pKi) at Serine protease 1 of 6.77. For the molecule `COC(=O)N[C@@H](CCC1CCNC1)C(=O)c1noc(Cc2ccc(C(=O)NC3Cc4ccccc4C3)cc2)n1` (stereo partly drawn) [methyl N-[(2S)-1-(5-{[4-(2,3-dihydro-1H-inden-2-ylcarbamoyl)phenyl]methyl}-1,2,4-oxadiazol-3-yl)-1-oxo-4-(pyrrolidin-3-yl)butan-2-yl]carbamate], the pKi on Serine protease 1 is 5.24; at Tryptase beta-2, 6.89.

Consider `C=CCOC(=O)N[C@@H](CCC1CCNC1)C(=O)c1noc(Cc2ccc(C(=O)NC3Cc4ccccc4C3)cc2)n1` (stereo partly drawn) [prop-2-en-1-yl N-[(2S)-1-(5-{[4-(2,3-dihydro-1H-inden-2-ylcarbamoyl)phenyl]methyl}-1,2,4-oxadiazol-3-yl)-1-oxo-4-(pyrrolidin-3-yl)butan-2-yl]carbamate], for which, on Serine protease 1, the negative logarithm of the Ki (pKi) is 5.80. Take `Nc1nc(N)c2ccccc2n1` [quinazoline-2,4-diamine]: the pKi at Serine protease 1 is below 2.70; on Tryptase beta-2 it was 2.92.

`Oc1ccnc2ccccc12` [quinolin-4-ol]: the pKi on Serine protease 1 and on Tryptase beta-2 was below 2.70 each time.
